Measurements taken from patent US7183320B2, “Benzoylsulfonamides and sulfonylbenzamidines for use as antitumour agents” (Eli Lilly and Company, priority 2002, dated 2007).

How the values were obtained:
[1] = tested on: MURINE COLON CARCINOMA-26; assay: Early stage murine colon carcinoma-26 (Table X); format: in vivo; settings: Balb/C female mice
Text: Conventional Murine Tumor and Human Tumor Xenouraft Assays
Briefly, the murine tumor or human xenograph was implanted subcutaneously using either 12-gauge trocar implants or counted number of cells. The location for the trocar insertion is midway between the axillary and inguinal region along the side of the mouse. The trocar is slipped approximately ¾ of an inch subcutaneously up toward the axilla before discharging the tumor fragment, and pinching the skin as the trocar is removed., Alternatively, human tumor cells prepared from a […] of donor tumors (5×10^6 cells) were implanted subcutaneously in a hind-leg of a male or female nude mouse (Charles River). Either a test compound in vehicle or vehicle alone was administered by intravenous bolus injection (iv), intraperitoneal injection (ip), or oral gavage (po). Each treatment group, as well as a group of untreated control animals, consisted of five animals per group in each experiment. […] Body weights were taken as a general measure of toxicity. The subcutaneous tumor data were analyzed by determining the median tumor weight for each treatment group over the course of the experiment and calculating the tumor growth delay as the difference in days for the treatment versus the control tumors to reach a volume of either 500 or 1000 mm^3.
The parameters measured in each experiment are summarized in the following paragraphs. • Tumor Weight(mg)=(a×b^2)/2 where a=tumor length (mm) and b=tumor width (mm). • Tumor Growth Delay=T−C where T is the median time (days) required for the treatment group tumors to reach a predetermined size, and C is the median time (days) for the control group tumors to reach the same size. Tumor-free survivors are excluded from this calculation, and are tabulated separately (Tumor Free).
The median tumor weight of each group is determined (including zeros). The T/C value in percent is an indication of antitumor effectiveness.

[2] = tested on: bFGF-induced neoangiogenesis; assay: Rat corneal micropocket assay, bFGF disks; format: in vivo; settings: 160 mg/kg orally by gavage once per day, days 1 through 10; Fisher 344 female rats
Experimental: Rat Corneal Micropocket Assay
Fisher 344 female rats (145–155 grams; Taconic, Inc., Germantown, N.Y.) were anesthesized with acepromazine (2.5 mg/kg, ip) 20 minutes prior to initiation of 2–3% isoflurane/oxygen inhalation. The body temperature was maintained with a circulating hot water pad. The surgery was performed using an ophthalmic operating microscope (OMS.75 Operating Microscope, TopCon Corporation, Japan). A scalpel blade (#15) was used to make a vertical half-thickness linear corneal incision just lateral to the center of the eye. […] A pocket was formed in the cornea using blunt dissection with corneal scissors (Roboz, Rockville, Md.). Nitrocellulose filters ([…], Millipore, Bedford, Mass.) were cut into small disks using a 20 gauge needle punch. The disks were soaked in 2 μl of human VEGF solution ([…]; R&D Systems) or human basic fibroblast growth factor (0.20 μg/μl; R&D Systems) for 10 minutes on ice. Using forceps, the disks impregnated with the angiogenic factor (VEGF or bFGF) were inserted into the corneal pocket so that the disk is firmly covered with corneal epithelium. […] The images were analyzed by converting the area of interest to high contrast black and white reversed image and counting the bright pixels as a determination of the vascular area. […]

[3] = total dose 1305 mg/kg: 145 mg/kg/injection IV on days 1, 3, 5, 7, 9, 13, 15, 17, and 19
[4] = total dose 1600 mg/kg: 100 mg/kg/injection IV BID on days 1, 3, 5, 7, 13, 15, 17, and 21
[5] = total dose 1740 mg/kg: 145 mg/kg/injection IV on days 1, 2, 3, 7, 8, 13, 14, 16, 18, and 20–22

O=C(NS(=O)(=O)c1ccccc1)c1ccc(Cl)cc1Cl [Example 110, N-[2,4-dichlorobenzoyl]phenylsulfonamide]
% BODY WT LOSS AT NADIR [1, 3]: +15% | % T/C MASS [1, 3]: 28% | ACTIVITY RATING [1, 3]: + (0.7–1.2) | DRUG DEATHS [1, 3]: 0/5 | GROWTH DELAY [1, 3]: 6 days | LOG KILL [1, 3]: 0.9 | TUMOR FREE AT DAY 31 [1, 3]: 0/5 | % BODY WT LOSS AT NADIR [1, 4]: +15% | % T/C MASS [1, 4]: 34% | ACTIVITY RATING [1, 4]: +++ (2.0–2.8) | DRUG DEATHS [1, 4]: 0/5 | GROWTH DELAY [1, 4]: 15 days | LOG KILL [1, 4]: 2.2 | TUMOR FREE AT DAY 31 [1, 4]: 0/5 | % BODY WT LOSS AT NADIR [1, 5]: +17% | % T/C MASS [1, 5]: 34% | ACTIVITY RATING [1, 5]: +++ (2.0–2.8) | DRUG DEATHS [1, 5]: 0/5 | GROWTH DELAY [1, 5]: 14 days | LOG KILL [1, 5]: 2.1 | TUMOR FREE AT DAY 31 [1, 5]: 0/5 | inhibition of bFGF-induced neoangiogenesis [2]: not an effective inhibitor
